Reference: patent publication US8586051B2, “Glycolipids and analogues thereof as antigens for NKT cells” (The Rockefeller University, priority 2004, dated 2013)

How the values were obtained:
[1] = system: CD1d reactive T cell hybridomas with an invariant Vα14i T cell antigen receptor α chain; assay: 1.2 Hybridoma assay (IL-2 release by ELISA); assay type: cell-based, Mouse; conditions: for IL-2 release / IL-2 production: various concentrations, FIG. 13; for IL-2 secretion: CD1d coated plates, FIG. 8b
Experimental: As a measure of T cell activation, IL-2 release into the tissue culture medium was measured after 16 hours culture by an ELISA assay.
As a measure of T cell activation, IL-2 and IFN-γ release into the tissue culture medium was measured after 16 hours culture by an ELISA assay.

[2] = system: Vα24i human NKT cell line; assay: In vitro cytokine secretion assay using human NKT cell lines with CD14+ dendritic cells; assay type: cell-based
Experimental: (§1) Human NKT cell lines, expressing the Vα24i T cell receptor as well as CD161, were generated as follows: Anti-CD161 monoclonal antibodies, and anti-CD14 monoclonal antibodies, each coupled to magnetic beads (Miltenyi biotec, Auburn, Calif.), were used sequentially to isolate CD161^+ cells and CD14^+ cells from leukopaks. Immature dendritic cells were generated from the CD14^+ cells after a two-day incubation in the presence of 300 U/ml GM-CSF (R&D systems, Minneapolis, Minn.) and 100 U/ml IL-4 (R&D systems, Minneapolis, Minn.). Following irradiation with 2000 rads, the immature dendritic cells were co-cultured with syngeneic CD161′ cells in the presence of 100 ng/ml of alpha-galactosylceramide and 10 IU/ml of IL-2 (Invitrogen, Carlsbad Calif.) for 10 to 14 days. After stimulating the CD161^+ cells a second time with alpha-galactosylceramide-pulsed, irradiated immature dendritic cells, NKT cell lines were shown by flow cytometry to express both CD161^+ and V 24i TCR (99% purity).
IFN-γ and IL-4 secretion by the Vα 24i human NKT cell line was determined by ELISA (BD Pharmingen, San Diego, Calif.) after culture for 16 hours. […]
as §1, with “of 100-0.1” for “of 100”
IFN-γ secretion by the Vα 24i human NKT cell line was determined by ELISA (BD Pharmingen, San Diego, Calif.) after culture for 16 hours. […]

CCCCCCCCCCCCCC[C@@H](O)[C@@H](O)[C@H](COC1OC(CO)C(O)C(O)C1O)NC(=O)CCCCCCCc1ccccc1 (some centres unmarked) [Compound 84]
IL-2 release / IL-2 production ([1]; CD1d transfected A20 cells): significant increase of IL-2 production
interferon-γ secretion ([2]; 100-0.1 ng/mL, FIGS. 17 and 18): consistently stimulating greater IFN-γ secretion

CCCCCCCCCCCCCC[C@@H](O)[C@@H](O)[C@H](COC1OC(CO)C(O)C(O)C1O)NC(=O)CCCCCc1ccccc1 (some centres unmarked) [Compound 83]
IL-2 release / IL-2 production ([1]; CD1d transfected A20 cells): significant increase of IL-2 production

CCCCCCCCCCCCCCC[C@@H](O)[C@H](COC1OC(CO)C(O)C(O)C1O)NC(=O)[C@@H](O)CCCCCCCCCCCC (some centres unmarked) [Compound 8]
IL-2 secretion [1]: less able to activate IL-2 secretion when compared with 5

CCCCCCCCCCCCCCC[C@@H](O)[C@H](COC1OC(C(=O)O)C(O)C(O)C1O)NC(=O)[C@@H](O)CCCCCCCCCCCC (some centres unmarked) [Compound 6]
reactivity of human Vα24i NKT cells [2]: conserved

CCCCCCCCCCCCCCCCCCCCCCCCCC(=O)N[C@@H](CO[C@H]1O[C@H](CO)[C@H](O)[C@H](O)[C@H]1O)[C@H](O)[C@H](O)CCCCCCCCCCCCCC [α-GalCer, α-Galactosylceramide, reference compound]
IL-2 release from the hybridomas ([1]; 1 μg/ml, CD1d transfected A20 cells, FIG. 12): greatest amount of IL-2 release
IL-2 secretion [1]: greater IL-2 secretion when compared to the galacturonic acid derivatives
IL-4 secretion ([2]; 10 μg/ml glycolipid (1-10 μg/ml for 3-O-sulfo-α-galactosylceramide), 10 IU/ml IL-2): greater IFN-γ and IL-4 secretion
IFN-γ secretion ([2]; 10 μg/ml glycolipid (1-10 μg/ml for 3-O-sulfo-α-galactosylceramide), 10 IU/ml IL-2, FIG. 9a): greater IFN-γ and IL-4 secretion

CCCCCCCCCCCCCCC[C@@H](O)[C@H](COC1OC(CO)C(O)C(O)C1O)NC(=O)CCCCCCCCCCCCC (some centres unmarked) [Compound 7]
IL-2 secretion [1]: greater IL-2 secretion when compared to the galacturonic acid derivatives

CCCCCCCCCCCCCCC[C@@H](O)[C@H](COC1OC(C(=O)O)C(O)C(O)C1O)NC(=O)CCCCCCCCCCCCC (some centres unmarked) [Compound 5]
reactivity of human Vα24i NKT cells [2]: conserved
